Test results as given in the supplement of paper PMC9663587.

tested on: MDAMB415; experiment: GRmax, 72 h; higher = less effect;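 note: breast cell lines in 384-well plates, nine doses across a 10^4 range, Dye Drop imaging of viable cells vs DMSO and time-zero plates, GR 0 means no net growth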

Row | SMILES | GRmax, 72 h
1 | COc1cccc(OCCCN)c1-c1cc(Nc2cnc(C#N)cn2)n[nH]1 | 0.69 GR
2 | CCCCOc1c(C(=O)c2c(F)cc(C)cc2F)c[nH]c2nncc1-2 (max 10 µM) | 0.24 GR
3 | CNc1nc(-c2ccc3c(N)n[nH]c3c2)cc(N2C[C@@H](C(=O)NC3CCCCC3)CC[C@H]2C)n1 (max 10 µM) | 0.0477 GR
4 | CO[C@@H](C)Cn1c(=O)n(C)c2cnc3ccc(-c4cncc(C(C)(C)O)c4)cc3c21 (max 10 µM) | -0.473 GR
5 | C=CCn1c(=O)c2cnc(Nc3ccc(N4CCN(C)CC4)cc3)nc2n1-c1cccc(C(C)(C)O)n1 [AZD1775] (max 10 µM) | -0.186 GR
6 | CNC(=O)c1cccc(-c2ccc3c(N4CCOC[C@@H]4C)nc(N4CCOC[C@@H]4C)nc3n2)c1 [AZD2014] (max 10 µM) | -0.138 GR
7 | NC1(C(=O)N[C@@H](CCO)c2ccc(Cl)cc2)CCN(c2nc[nH]c3nccc2-3)CC1 [AZD5363] (max 10 µM) | -0.529 GR
8 | C[C@@H]1COCCN1c1cc(C2([S@](C)(=N)=O)CC2)nc(-c2cc[nH]c3nccc2-3)n1 [AZD6738] (max 10 µM) | 0.522 GR
9 | CN(C)C/C=C/C(=O)Nc1ccc(O[C@@H]2CCC[C@@H](Nc3ncc(Cl)c(-c4c[nH]c5ccccc45)n3)C2)cc1 [BSJ-01-175] (max 10 µM) | -0.491 GR
10 | CC(=O)c1c(C)c2cnc(Nc3ccc(N4CCN(CCOCCOCCOCCNC(=O)COc5cccc6c5C(=O)N(C5CCC(=O)NC5=O)C6=O)CC4)cn3)nc2n(C2CCCC2)c1=O (centres undefined) [BSJ-03-123] (max 10 µM) | 0.149 GR
11 | CC(C)Nc1cc(-c2c[nH]c(C(=O)N[C@H](CO)c3cccc(Cl)c3)c2)c(Cl)cn1 [BVD523] (max 10 µM) | 0.533 GR
12 | CCC(=O)Nc1ccc(C(=O)Nc2ccc(Nc3ncc4c(n3)N(C)c3ccc(C)cc3C(=O)N4C)cc2)cc1 [FMF-03-145-1] | 0.0653 GR
13 | COc1cc(N2CCN(C)CC2)ccc1Nc1ncc2c(n1)N(C)c1ccccc1C(=O)N2CC(F)(F)F [FMF-03-146-1] | 0.959 GR
14 | CN1CC[C@H](c2c(O)cc(O)c3c(=O)cc(-c4ccccc4Cl)oc23)[C@H](O)C1 [Flavopiridol] (max 1 µM) | -0.303 GR
15 | CN(C)C(=O)c1cc2cnc(Nc3ccc(N4CCNCC4)cn3)nc2n1C1CCCC1 [LEE011/Ribociclib] (max 10 µM) | 0.231 GR
16 | O=C1NC(=NCc2cccs2)SC1=Cc1ccc2ncccc2c1 [R0-3306] (max 10 µM) | 0.914 GR
17 | CNCc1ccc(-c2[nH]c3cc(F)cc4c3c2CCNC4=O)cc1 [Rucaparib] (max 10 µM) | 0.642 GR
18 | CC1(N)CCN(c2cnc(-c3cccc(Cl)c3Cl)c(N)n2)CC1 [SHP099] (max 10 µM) | 0.75 GR
19 | CN1CCN(CCOc2cc(OC3CCOCC3)c3c(Nc4c(Cl)ccc5c4OCO5)ncnc3c2)CC1 [Saracatinib/AZD0530] (max 10 µM) | 0.324 GR
20 | Cc1cc(C(C)Nc2ccccc2)c2nc(N3CCOCC3)cc(=O)n2c1 (centres undefined) [TGX221] (max 10 µM) | 0.184 GR
21 | CN(C)C/C=C/C(=O)Nc1ccc(C(=O)Nc2cccc(Nc3ncc(Cl)c(-c4c[nH]c5ccccc45)n3)c2)cc1 [THZ1] (max 1 µM) | -0.421 GR
22 | CN(C)C/C=C/C(=O)Nc1ccc(C(=O)N2CCC[C@@H](Nc3ncc(Cl)c(-c4c[nH]c5ccccc45)n3)C2)cc1 [THZ531] (max 1 µM) | -0.344 GR
23 | CN(C)C/C=C/C(=O)Nc1ccc(C(=O)Nc2cccc(Nc3cc(-c4c[nH]c5ccccc45)ncn3)c2)cc1 [THZ-P1-2] (max 10 µM) | -0.513 GR
24 | Cc1nc(-c2cn3c(n2)-c2ccc(-c4cnn(C(C)(C)C(N)=O)c4)cc2OCC3)n(C(C)C)n1 [Taselisib/GDC0032] (max 10 µM) | -0.792 GR
25 | O=C1NC(=O)[C@@H](c2cn3c4c(cccc24)CCC3)[C@@H]1c1c[nH]c2ccccc12 [Tivantinib/ARQ197] (max 10 µM) | -0.184 GR
26 | Nc1ccc(-c2ccc3ncc4ccc(=O)n(-c5cccc(C(F)(F)F)c5)c4c3c2)cn1 [Torin2] (max 1 µM) | -0.372 GR
27 | CC[C@@H]1C(=O)N(C)c2cnc(Nc3ccc(C(=O)N[C@H]4CC[C@H](N5CCN(CC6CC6)CC5)CC4)cc3OC)nc2N1C(C)C [Volasertib/BI6727] (max 1 µM) | -0.314 GR
28 | O=C(CCCCCCC(=O)Nc1ccccc1)NO [Vorinostat] (max 10 µM) | -0.503 GR
29 | C=CC(=O)Nc1ccc(C(=O)Nc2[nH]nc3c2CN(C(=O)N[C@H](CN(C)C)c2ccccc2)C3(C)C)cc1 [YKL-5-124] (max 10 µM) | -0.0129 GR
30 | CN1CCN(C(=O)c2ccc3cc(CCNc4ncnc5ccc(C#N)cc45)ccc3c2)CC1 [senexin b] (max 10 µM) | 0.609 GR

tested on: MDAMB453; experiment: GRmax, 72 h; higher = less effect;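 note: breast cell lines in 384-well plates, nine doses across a 10^4 range, Dye Drop imaging of viable cells vs DMSO and time-zero plates, GR 0 means no net growth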

Row | SMILES | GRmax, 72 h
31 | COc1ccc2c(c1)[C@]1(C[C@H]1c1ccc3c(/C=C/c4ccc(CN5C[C@@H](C)O[C@@H](C)C5)cc4)n[nH]c3c1)C(=O)N2 | 0.0847 GR
32 | COc1cccc(OCCCN)c1-c1cc(Nc2cnc(C#N)cn2)n[nH]1 | -0.513 GR
33 | CCCCOc1c(C(=O)c2c(F)cc(C)cc2F)c[nH]c2nncc1-2 (max 10 µM) | 0.31 GR
34 | CNc1nc(-c2ccc3c(N)n[nH]c3c2)cc(N2C[C@@H](C(=O)NC3CCCCC3)CC[C@H]2C)n1 (max 10 µM) | 0.147 GR
35 | CO[C@@H](C)Cn1c(=O)n(C)c2cnc3ccc(-c4cncc(C(C)(C)O)c4)cc3c21 (max 10 µM) | -0.578 GR
36 | C=CCn1c(=O)c2cnc(Nc3ccc(N4CCN(C)CC4)cc3)nc2n1-c1cccc(C(C)(C)O)n1 [AZD1775] (max 10 µM) | -0.249 GR
37 | CNC(=O)c1cccc(-c2ccc3c(N4CCOC[C@@H]4C)nc(N4CCOC[C@@H]4C)nc3n2)c1 [AZD2014] (max 10 µM) | 0.134 GR
38 | NC1(C(=O)N[C@@H](CCO)c2ccc(Cl)cc2)CCN(c2nc[nH]c3nccc2-3)CC1 [AZD5363] (max 10 µM) | 0.23 GR
39 | C[C@@H]1COCCN1c1cc(C2([S@](C)(=N)=O)CC2)nc(-c2cc[nH]c3nccc2-3)n1 [AZD6738] (max 10 µM) | -0.162 GR
40 | CN(C)C/C=C/C(=O)Nc1ccc(O[C@@H]2CCC[C@@H](Nc3ncc(Cl)c(-c4c[nH]c5ccccc45)n3)C2)cc1 [BSJ-01-175] (max 10 µM) | -0.723 GR
41 | CC(=O)c1c(C)c2cnc(Nc3ccc(N4CCN(CCOCCOCCOCCNC(=O)COc5cccc6c5C(=O)N(C5CCC(=O)NC5=O)C6=O)CC4)cn3)nc2n(C2CCCC2)c1=O (centres undefined) [BSJ-03-123] (max 10 µM) | -0.022 GR
42 | CC(C)Nc1cc(-c2c[nH]c(C(=O)N[C@H](CO)c3cccc(Cl)c3)c2)c(Cl)cn1 [BVD523] (max 10 µM) | 0.387 GR
43 | CCC(=O)Nc1ccc(C(=O)Nc2ccc(Nc3ncc4c(n3)N(C)c3ccc(C)cc3C(=O)N4C)cc2)cc1 [FMF-03-145-1] | 0.0994 GR
44 | COc1cc(N2CCN(C)CC2)ccc1Nc1ncc2c(n1)N(C)c1ccccc1C(=O)N2CC(F)(F)F [FMF-03-146-1] | 0.803 GR
45 | CN1CC[C@H](c2c(O)cc(O)c3c(=O)cc(-c4ccccc4Cl)oc23)[C@H](O)C1 [Flavopiridol] (max 1 µM) | -0.188 GR
46 | CN(C)C(=O)c1cc2cnc(Nc3ccc(N4CCNCC4)cn3)nc2n1C1CCCC1 [LEE011/Ribociclib] (max 10 µM) | 0.189 GR

Row | SMILES | GRmax, 72 h
47 | O=C1NC(=NCc2cccs2)SC1=Cc1ccc2ncccc2c1 [R0-3306] (max 10 µM) | 0.0452 GR
48 | CNCc1ccc(-c2[nH]c3cc(F)cc4c3c2CCNC4=O)cc1 [Rucaparib] (max 10 µM) | 0.18 GR
49 | CC1(N)CCN(c2cnc(-c3cccc(Cl)c3Cl)c(N)n2)CC1 [SHP099] (max 10 µM) | 0.726 GR
50 | CN1CCN(CCOc2cc(OC3CCOCC3)c3c(Nc4c(Cl)ccc5c4OCO5)ncnc3c2)CC1 [Saracatinib/AZD0530] (max 10 µM) | 0.393 GR
51 | Cc1cc(C(C)Nc2ccccc2)c2nc(N3CCOCC3)cc(=O)n2c1 (centres undefined) [TGX221] (max 10 µM) | 0.828 GR
52 | CN(C)C/C=C/C(=O)Nc1ccc(C(=O)Nc2cccc(Nc3ncc(Cl)c(-c4c[nH]c5ccccc45)n3)c2)cc1 [THZ1] (max 1 µM) | -0.256 GR
53 | CN(C)C/C=C/C(=O)Nc1ccc(C(=O)N2CCC[C@@H](Nc3ncc(Cl)c(-c4c[nH]c5ccccc45)n3)C2)cc1 [THZ531] (max 1 µM) | -0.294 GR
54 | CN(C)C/C=C/C(=O)Nc1ccc(C(=O)Nc2cccc(Nc3cc(-c4c[nH]c5ccccc45)ncn3)c2)cc1 [THZ-P1-2] (max 10 µM) | -0.706 GR
55 | Cc1nc(-c2cn3c(n2)-c2ccc(-c4cnn(C(C)(C)C(N)=O)c4)cc2OCC3)n(C(C)C)n1 [Taselisib/GDC0032] (max 10 µM) | -0.635 GR
56 | O=C1NC(=O)[C@@H](c2cn3c4c(cccc24)CCC3)[C@@H]1c1c[nH]c2ccccc12 [Tivantinib/ARQ197] (max 10 µM) | -0.0719 GR
57 | Nc1ccc(-c2ccc3ncc4ccc(=O)n(-c5cccc(C(F)(F)F)c5)c4c3c2)cn1 [Torin2] (max 1 µM) | -0.814 GR
58 | CC[C@@H]1C(=O)N(C)c2cnc(Nc3ccc(C(=O)N[C@H]4CC[C@H](N5CCN(CC6CC6)CC5)CC4)cc3OC)nc2N1C(C)C [Volasertib/BI6727] (max 1 µM) | -0.201 GR
59 | O=C(CCCCCCC(=O)Nc1ccccc1)NO [Vorinostat] (max 10 µM) | -0.608 GR
60 | C=CC(=O)Nc1ccc(C(=O)Nc2[nH]nc3c2CN(C(=O)N[C@H](CN(C)C)c2ccccc2)C3(C)C)cc1 [YKL-5-124] (max 10 µM) | -0.503 GR
61 | CN1CCN(C(=O)c2ccc3cc(CCNc4ncnc5ccc(C#N)cc45)ccc3c2)CC1 [senexin b] (max 10 µM) | 0.148 GR

tested on: PDXHCI002; experiment: GRmax, 72 h; higher = less effect;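 note: breast cell lines in 384-well plates, nine doses across a 10^4 range, Dye Drop imaging of viable cells vs DMSO and time-zero plates, GR 0 means no net growth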

Row | SMILES | GRmax, 72 h
62 | COc1ccc2c(c1)[C@]1(C[C@H]1c1ccc3c(/C=C/c4ccc(CN5C[C@@H](C)O[C@@H](C)C5)cc4)n[nH]c3c1)C(=O)N2 | 0.107 GR
63 | COc1cccc(OCCCN)c1-c1cc(Nc2cnc(C#N)cn2)n[nH]1 | 0.705 GR
64 | CCCCOc1c(C(=O)c2c(F)cc(C)cc2F)c[nH]c2nncc1-2 (max 10 µM) | 0.217 GR
